Two molecules from PMC3280530, “Marine Compounds Selectively Induce Apoptosis in Female Reproductive Cancer Cells but Not in Primary-Derived Human Reproductive Granulosa Cells” (Marine Drugs, 2012) can be followed below.

The subject of experiment [1] is JAr cells. Nature of the experiment: Crystal violet cell viability assay. The class given is cell-based. The settings on record: Homo sapiens. The procedure:
(§1) For cell assays, the D. orbita fractions were prepared fresh on the day of the experiment by dissolving in dimethyl sulfoxide (DMSO; 100%) at 100× the final concentration. These were diluted to a range of working concentrations (0.001–0.5 mg/mL) in complete cell assay medium to give a final working concentration per well of 1% DMSO. All samples were filtered through a […] (Sartorius) filter before use.
(§2) The primary-derived granulosa cells, along with the KGN, JAr and OVCAR-3 cell lines (10,000 cells per well) were plated into sterile white (opaque) 96-well plates (Interpath) and clear sterile 96-well plates (Interpath) in 0.1 mL per well of complete cell culture medium for 24 h (granulosa, KGN and OVCAR-3 cells) and 2 h (for JAr cells) to allow cell adherence. Standard curves of 0–40,000 cells per well (primary granulosa cells) and 0–80,000 cells per well (for KGN, JAr and OVCAR-3 cells) in six replicate wells were plated into clear 96-well plates, alongside the test plates. After the initial cell adherence period, spent media (media deficient of nutrients and serum) were discarded and primary-derived granulosa, KGN, JAr and OVCAR-3 cells were treated with the two D. orbita fractions at concentrations of 0.005, 0.01, 0.05, 0.1, and 0.5 mg/mL in a final volume of 0.1 mL per well in triplicate wells, for 4 and 24 h at 37 °C + 5% CO2. 1 h prior to the end of eachincubation period two positive controls were added; one for apoptosis (1 μg/mL DNase I), and the second for necrosis (2 μL per well of a cell lysis buffer; Promega). This experiment was repeated on three separate occasions (n = 3).
(§3) After 4 and 24 h exposure to D. orbita fractions in clear 96-well plates, media and all dead unattached cells were removed. The remaining adherent cells were rinsed with sterile 1× PBS and the crystal violet assay was performed. The crystal violet assay is a colourmetric assay in which only the nuclei of live cells take up the crystal violet stain (0.5%). The absorbance in the wells of the crystal violet plates were read on an automatic spectrophotometer at 570 nm, with reference absorbance 630 nm using KC Junior Software. This assay was repeated on three separate occasions (n = 3).

For experiment [2], the system named is KGN cells. Put plainly: Crystal violet cell viability assay. The class given is cell-based. The settings on record: Homo sapiens. The procedure:
as §1, §2, §3

Experiment [3] relates to OVCAR-3 cells. Put plainly: Crystal violet cell viability assay. The class given is cell-based. The note with it: Homo sapiens, OVCAR-3, crystal violet. As for the experimental part: as §1, §2, §3
Experiment [4] relates to primary-derived human reproductive granulosa cells (HGC). Put plainly: Crystal violet cell viability assay. The class given is cell-based. As for the experimental part:
as §1, §2, §3

The test system of experiment [5] is KGN cells. Nature of the experiment: MTT cell viability assay. The class given is cell-based, human. As for the experimental part:
as §1, §2
(§4) After 4, 24, 48 and 72 h exposure to D. orbita fractions in clear 96-well plates, media and all dead unattached cells were removed. The remaining adherent cells were rinsed with sterile 1× PBS and the MTT assay was performed. The MTT assay measures the reduction of a yellow substrate to formazan, a purple precipitate, by the mitochondrial succinate dehydrogenase enzymes. A solution of 0.5 mg/mL MTT (was added to wells in a final volume of 0.1 mL. The plates were then incubated for 1 h (JAr cells) and 18 h (KGN, OVCAR-3 and GC cells) at 37 °C and 5% CO2. At the end of the incubation period, 80 μL/well 20% SDS in 0.02 M HCl was added and plate was incubated for a further 1 h at room temperature in the dark. The absorbance was the measured at 570 nm, with reference absorbance 630 nm, using an automatic spectrophotometer using KC Junior software. This assay was repeated on three separate occasions (n = 3).
(Tetrazolium assays rely on reduction of a dye to a coloured formazan, in cell work by metabolically active cells.)

Experiment [6] has as its system OVCAR-3 cells. Nature of the experiment: MTT cell viability assay. The class given is cell-based, human. The note with it: OVCAR-3, MTT. As for the experimental part:
as §1, §2, §4

In experiment [7] the test system is JAr cells. Nature of the experiment: LDH membrane integrity assay (necrosis). The class given is cell-based, human. As for the experimental part: as §2
(§5) After 4 and 24 h exposure to the D. orbita fractions in opaque 96-well plates, a combined membrane integrity and caspase 3/7 assay were performed on the primary-derived granulosa cells and KGN cells. The CytoTox-ONE Homogeneous Membrane Integrity Assay kit (Promega) was applied according to the manufacturer’s instructions. After the fluorescence was read at 535EX/590EM, the Caspase-Glo 3/7® assay (Promega) was applied to the primary granulosa cells and KGN cells according to the manufacturer’s instructions for1h and the plates were read on full light to capture total luminescence. The LDH-membrane integrity assay alone was performed on the JAr and OVCAR-3 cells using the CytoTox-ONE Homogeneous Membrane Integrity Assay kit (Promega). This assay was repeated on three separate occasions (n = 3).

In experiment [8] the test system is KGN cells. Put plainly: LDH membrane integrity assay (necrosis). The experiment is classed as cell-based, human. As for the experimental part: as §2, §5
Experiment [9] relates to OVCAR-3 cells. Nature of the experiment: LDH membrane integrity assay (necrosis). The experiment is classed as cell-based, human. As for the experimental part:
as §2, §5

The mark [10] stands for this setting: Homo sapiens, OVCAR-3, 4 h, 4 h.
Where [11] appears, read: Homo sapiens, OVCAR-3, 24 h, 24 h.
Setting [12] is: Homo sapiens, OVCAR-3, 48 h, 48 h.
[13] abbreviates: Homo sapiens, OVCAR-3, 72 h, 72 h.
Setting [14] is: exposure time not stated at the place (4 and 24 h tested).

Structures are written as SMILES.

For orientation: IC50 means the concentration that gives 50% inhibition. Turning to `O=C1Nc2cc(Br)ccc2C1=O` [6-Bromoisatin, 6-bromoisatin], the IC50 with JAr cells [1] (4 h) came to 223 µM; in the experiment on JAr cells [1] (24 h) it was 178 µM; in the experiment on KGN cells [2] (4 h), 892 µM; in the experiment on KGN cells [2] (24 h) it was 223 µM; with OVCAR-3 cells [3] (4 h), 446 µM; in the experiment with OVCAR-3 cells [3] (24 h) it was 268 µM. The IC50 in experiment [4] (4 h) is over 2230 µM; in [4] (24 h) it was over 2230 µM; with KGN cells [5] (72 h) it was under 22 µM; with KGN cells [5] (Homo sapiens, 4 h), 178 µM; with KGN cells [5] (Homo sapiens, 24 h), 446 µM; with KGN cells [5] (Homo sapiens, 48 h) it was 22 µM. Moreover, the IC50 is 22 µM with KGN cells [5] (Homo sapiens, 72 h); 402 µM in the experiment on OVCAR-3 cells [6] (setting [10]); 446 µM in the experiment with OVCAR-3 cells [6] (setting [11]); 89 µM with OVCAR-3 cells [6] (setting [12]); 22 µM in the experiment with OVCAR-3 cells [6] (setting [13]); under 22 µM with OVCAR-3 cells [6] (72 h). For the same molecule, the “concentration at which LDH release significantly increased” value with JAr cells [7] (setting [14]) was 446 µM; in the experiment with KGN cells [8] (setting [14]), 446 µM; in the experiment on OVCAR-3 cells [9] (OVCAR-3, exposure time not stated at the place (4 and 24 h tested)), 446 µM.

Regarding `CSC1=Nc2cc(Br)ccc2C1=O` [Tyrindoleninone, tyrindoleninone], the IC50 with JAr cells [1] (4 h) was 234 µM; with JAr cells [1] (24 h), 195 µM; with KGN cells [2] (4 h), 156 µM; with KGN cells [2] (24 h) it was 156 µM; in the experiment on OVCAR-3 cells [3] (4 h), 313 µM; in the experiment on OVCAR-3 cells [3] (24 h) it was 352 µM. The IC50 in experiment [4] (4 h) is over 1950 µM; in [4] (24 h), over 1950 µM; in the experiment with KGN cells [5] (Homo sapiens, 4 h), 39 µM; with KGN cells [5] (Homo sapiens, 24 h), 78 µM; in the experiment on KGN cells [5] (Homo sapiens, 48 h), 20 µM; in the experiment on KGN cells [5] (Homo sapiens, 72 h), under 20 µM. The half-inhibitory concentration (IC50) in the experiment on OVCAR-3 cells [6] (setting [10]) is 156 µM; in the experiment with OVCAR-3 cells [6] (setting [11]), 234 µM; with OVCAR-3 cells [6] (setting [12]), 31 µM; with OVCAR-3 cells [6] (setting [13]), under 20 µM. Further, the “concentration at which necrosis (LDH release) was detected” value turned out to be 195 µM in the experiment with JAr cells [7] (4 h exposure) and 391 µM in the experiment with OVCAR-3 cells [9] (OVCAR-3, 4 h exposure). In addition, the “LDH released (fluorescence 535EX/590EM)” value in the experiment with KGN cells [8] (4 h, 1953 µM (0.5 mg/mL)) is on record as 1612 ± 771. Further, the “concentration required to cause LDH release (necrosis)” value came out at 1953 µM with KGN cells [8] (4 h exposure) and 195 µM in the experiment with KGN cells [8] (24 h exposure).
